Data set [1] has as its target T1, S1P4 (Homo sapiens, UniProt O95977).
T1 sequence (O95977 1-384): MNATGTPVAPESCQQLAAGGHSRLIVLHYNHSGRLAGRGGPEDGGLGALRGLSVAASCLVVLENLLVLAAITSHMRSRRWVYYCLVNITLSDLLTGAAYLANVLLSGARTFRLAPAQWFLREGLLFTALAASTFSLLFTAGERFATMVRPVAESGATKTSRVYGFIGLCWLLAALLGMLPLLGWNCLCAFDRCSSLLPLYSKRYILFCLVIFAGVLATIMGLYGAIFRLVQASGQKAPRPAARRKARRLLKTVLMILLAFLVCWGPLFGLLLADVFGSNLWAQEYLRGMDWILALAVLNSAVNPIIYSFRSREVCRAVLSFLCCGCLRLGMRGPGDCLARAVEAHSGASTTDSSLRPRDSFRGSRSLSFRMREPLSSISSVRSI
To be noted: read-out: Potency (EC50) S1P4, cited from earlier work.

The target of data set [2] is T1, S1P4. The settings on record: Mandala et al., 2002; CHO cell membranes; read-out: Binding (IC50) S1P4; cited from earlier work.
Data set [3] deals with adult neural stem cells (NSCs). As to the kind of experiment: BrdU incorporation proliferation assay. Format: cell-based, mouse. The settings on record: 10 nM. On the procedure:
(§1) The anterior lateral wall of the lateral ventricle of 5-6 week old mice was enzymatically dissociated at 37° C. for 20 min in 0.8 mg/ml hyaluronidase and 0.5 mg/ml trypsin in DMEM containing 4.5 mg/ml glucose and 80 units/ml DNase. The cells were gently triturated and mixed with three volumes of Neurosphere medium (DMEM/F12, B27 supplement, 125 mM HEPES Ph 7.4) containing 20 ng/ml EGF (unless otherwise stated), 100 units/ml penicillin, and 100 μg/ml streptomycin. After passing through a 70 μm strainer, the cells were pelleted at 160×g for 5 min. The supernatant was subsequently removed and the cells resuspended in Neurosphere medium supplemented as above, plated out in culture dishes and incubated at 37° C. Neurosphere cultures were ready to be split approximately 7 days after plating.
To split the neurosphere cultures, neurospheres were collected by centrifugation at 160×g for 5 min. The conditioned supernatant (conditioned medium) was removed and saved. The neurospheres were resuspended in 0.5 ml Trypsin/EDTA in HBSS (1×), incubated at 37° C. for 2 min, and triturated gently to aid dissociation. […]
DNA synthesis is commonly used to measure cell proliferation. […] After incorporation if the pyrimidine analogue into DNA, BrdU was detected by immunoassay. […]
In general terms: Incorporation of labelled thymidine or its analogues reports DNA synthesis.

For data set [4] the following is noted: cited from earlier work.
The test system of data set [5] is adult neural stem cells (NSCs). Briefly: Lactate dehydrogenase (LDH) cell death assay. To be noted: 3 days. Format: cell-based, mouse. On the procedure: (§2) The adherent cells were seeded at a density of 30,000 cells/well on poly-D-lysine in DMEM/F12 supplemented with 1% fetal calf serum (FCS).
The death of cells that occurred during the 3 days was measured as leakage of lactate dehydrogenase (LDH) into the medium. […] The proportion of LDH in the medium to total LDH (medium+cells) gives the percentage of cell death. Treated and untreated cells can thus be compared to rule out apoptosis as the cause for the different results observed in the ATP proliferation assay. The amount of LDH was measured according to the instructions of the manufacturer, Promega, USA (see, also, Chen, et al., 2004).

The conditions of data set [6]: dogs; cited from earlier work.
For data set [7] the following is noted: monkeys; cited from earlier work.
Data set [8] has as its target T2, CYP4F3 (Homo sapiens, UniProt Q08477).
T2 sequence (Q08477 1-520): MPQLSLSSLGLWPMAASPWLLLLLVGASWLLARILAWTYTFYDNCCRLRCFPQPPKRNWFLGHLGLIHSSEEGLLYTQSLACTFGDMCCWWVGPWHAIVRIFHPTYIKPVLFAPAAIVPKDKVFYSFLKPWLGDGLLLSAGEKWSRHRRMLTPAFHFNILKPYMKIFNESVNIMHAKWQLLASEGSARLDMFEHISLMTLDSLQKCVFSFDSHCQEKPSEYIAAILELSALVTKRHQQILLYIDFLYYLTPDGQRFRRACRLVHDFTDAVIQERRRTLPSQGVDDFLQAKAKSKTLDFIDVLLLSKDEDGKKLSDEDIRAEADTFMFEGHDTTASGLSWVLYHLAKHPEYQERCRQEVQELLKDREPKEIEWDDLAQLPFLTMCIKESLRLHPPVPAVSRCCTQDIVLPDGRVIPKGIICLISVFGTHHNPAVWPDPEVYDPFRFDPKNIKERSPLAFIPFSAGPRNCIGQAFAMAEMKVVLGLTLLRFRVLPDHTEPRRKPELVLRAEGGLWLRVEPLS
To be noted: cited from earlier work.

For data set [9], the target named is S1P3 (Homo sapiens, UniProt Q99500). The settings on record: Mandala et al., 2002; CHO cell membranes; read-out: Binding (IC50) S1P3; cited from earlier work.
The conditions of data set [10]: primates, 3 mg/kg; IDDB; cited from earlier work.
The target of data set [11] is S1P2 (Homo sapiens, UniProt O95136). To be noted: Mandala et al., 2002; CHO cell membranes; read-out: Binding (IC50) S1P2; cited from earlier work.
For data set [12] the following is noted: renal transplant patients, single oral dose 0.25-3 mg, whole blood, 96 hours; cited from earlier work.
Data set [13] addresses S1P5 (Homo sapiens, UniProt Q9H228). The settings on record: Mandala et al., 2002; CHO cell membranes; read-out: Binding (IC50) S1P5; cited from earlier work.
For data set [14] the following is noted: rats, cited from earlier work.
For data set [15] the following is noted: dog models, dosages below 200 mg/kg; IDDB; cited from earlier work.
The conditions of data set [16]: rat models; IDDB; cited from earlier work.
Data set [17] deals with adult neural stem cells (NSCs). As to the kind of experiment: Intracellular ATP proliferation assay. In kind it is cell-based, mouse. To be noted: for Increase in intracellular ATP levels: 10 nM, 3 days. On the procedure:
as §1
To split the neurosphere cultures, neurospheres were collected by centrifugation at 160×g for 5 min. The conditioned supernatant (conditioned medium) was removed and saved. The neurospheres were resuspended in 0.5 ml Trypsin/EDTA in HBSS (1×), incubated at 37° C. for 2 min, and triturated gently to aid dissociation. Following a further 3 min incubation at 37° C. and trituration, 3 volumes of ice cold NSPH-media-EGF were added to stop further trypsin activity. The cells were pelleted at 220×g for 4 min, and resuspended in a 1:1 mixture of fresh Neurosphere medium and conditioned medium. EGF was supplemented to 20 ng/ml and the culture plated out and incubated at 37° C.
as §2
The following experiment was performed in sets of four parallel experiments (i.e., performed in quadruplicate) so that the cells could be used for different assays. […] Cells were lysed with 0.1% Triton-X100 in Tris-EDTA buffer. Intracellular ATP was measured using an ATP-SL kit according to the manufacturer's instructions (BioThema, Sweden). […] For each experiment, wells were visually examined for signs of neurogenesis and counted to confirm the results of the assay. Results were repeatable and statistically significant.

The term IC50 denotes the point on the concentration scale where inhibition reaches its midpoint. A word on the LD50: it is the dose at which mortality reaches 50%.

Like-named read-outs stand apart in the source and are kept apart here. Where only a bound is given, the exact number is not on record here.

S1P5, sequence (Q9H228 whole entry, species assumed): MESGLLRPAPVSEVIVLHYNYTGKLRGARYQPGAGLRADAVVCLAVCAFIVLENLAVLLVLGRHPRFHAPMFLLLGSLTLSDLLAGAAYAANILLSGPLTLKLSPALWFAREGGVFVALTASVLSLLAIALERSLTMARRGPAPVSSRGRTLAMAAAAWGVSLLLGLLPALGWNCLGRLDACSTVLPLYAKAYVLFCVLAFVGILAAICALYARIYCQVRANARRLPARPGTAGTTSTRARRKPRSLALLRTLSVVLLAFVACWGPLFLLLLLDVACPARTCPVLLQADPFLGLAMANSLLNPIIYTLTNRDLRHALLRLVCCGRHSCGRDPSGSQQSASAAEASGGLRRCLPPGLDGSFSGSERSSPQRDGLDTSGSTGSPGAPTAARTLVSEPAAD
S1P2, sequence (O95136 whole entry, species assumed): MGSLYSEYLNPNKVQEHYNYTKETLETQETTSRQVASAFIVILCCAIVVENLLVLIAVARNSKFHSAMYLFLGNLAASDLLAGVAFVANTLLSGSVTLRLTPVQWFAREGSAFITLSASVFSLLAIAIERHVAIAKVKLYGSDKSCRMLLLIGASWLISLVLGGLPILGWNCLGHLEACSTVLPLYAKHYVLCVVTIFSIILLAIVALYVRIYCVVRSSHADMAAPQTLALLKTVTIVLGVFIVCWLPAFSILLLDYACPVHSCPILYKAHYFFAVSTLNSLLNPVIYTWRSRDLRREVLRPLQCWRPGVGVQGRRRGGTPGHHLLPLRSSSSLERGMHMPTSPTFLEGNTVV
S1P3, sequence (Q99500 whole entry, species assumed): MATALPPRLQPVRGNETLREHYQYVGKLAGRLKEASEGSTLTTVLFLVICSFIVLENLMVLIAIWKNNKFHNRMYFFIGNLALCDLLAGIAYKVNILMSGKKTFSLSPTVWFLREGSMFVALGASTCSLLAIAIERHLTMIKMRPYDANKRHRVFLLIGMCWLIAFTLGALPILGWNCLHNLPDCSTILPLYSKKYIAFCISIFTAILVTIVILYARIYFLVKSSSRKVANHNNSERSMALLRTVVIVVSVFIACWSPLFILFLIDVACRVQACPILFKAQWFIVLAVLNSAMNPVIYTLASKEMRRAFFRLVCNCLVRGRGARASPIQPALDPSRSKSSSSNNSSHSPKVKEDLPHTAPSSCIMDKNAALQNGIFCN

For `CCCCCCCCc1ccc(CCC(N)(CO)COP(=O)(O)O)cc1` (racemic) [FTY720P], the EC50 was 7.2 nM in data set [1] (Brinkmann et al., 2002) and 43 nM in [1] (Novartis data). For the same molecule, the IC50 in data set [2] is 5.9 nM.

As to `CCCCCCCCc1ccc(CCC(N)(CO)CO)cc1` [FTY720, 2-amino-2-[2-(4-octylphenyl)ethyl]-1,3-propanediol], the “Increase in BrdU incorporation” value stood at 271% in data set [3] (adherent cells) and 52% in [3] (suspension cells). The Adverse events result in data set [4] (PI renal transplant patients, 0.25-3.5 mg single dose) is “no serious adverse events”. Moreover, the “Only observed side effect” value in data set [4] (orally administered for immunosuppression) is “mild and transient bradycardia”. Besides, the “Change in LDH levels between control and treated cells” value in [5] was “No significant change”. Moreover, the Oral bioavailability is recorded as 60% in data set [6], 40% in [7] and 80% in data set [14]. Besides, the Metabolic route entry in [8] is reported as “metabolized primarily by CYP4F3 to the corresponding carboxylic acid”. Also, the concentration for half-maximal inhibition (IC50) is more than 10000 nM in [9], more than 10000 nM in data set [11], 2620 nM in data set [13] and more than 5000 nM in data set [2]. In addition, the Toxicity result in data set [10] is listed as “no observed toxicity”. Moreover, the Absorption entry in data set [12] is on record as “slowly absorbed”. Besides, the “Cmax and AUC versus dose” value in data set [12] was “proportional to the dose”. Moreover, the T1/2 in [14] (single oral dose 0.1 mg/kg) is 18.1 h; in data set [14] (single oral dose 1 mg/kg), 21.6 h. In data set [15], the Deaths entry was “no deaths were observed”. Also, the LD50 in [16] was 300 to 600 mg/kg. Also, the “Concentration of maximum proliferation effect” value in data set [17] (FIG. 2) was 0.04 nM. Further, in [17] (Mus musculus, Neural stem cell, dose-response curve, FIG. 2, read-out: EC50 of in vitro proliferation of NSCs (ATP assay)), the EC50 stood at 0.02 nM. The “Increase in intracellular ATP levels” value worked out at 42% in [17] (adherent cells) and 25% in data set [17] (suspension cells).

The values above are taken from patent US20050090520A1 (priority 2003, published 2005).
